Assay results as given in patent US11884649B2, “IRE1α inhibitors and uses thereof” (The Regents of the University of California, priority 2020, dated 2024).

Columns and labels:
IRE1α* = biological target: T1, IRE1α* (Homo sapiens, UniProt O75460); experiment: In vitro RNase activity assay, XBP1-mini substrate cleavage, inhibitor titrations; type: biochemical; settings: relative to apo IRE1α*
T1 construct: human IRE1α (residues 547-977, IRE1α*) was expressed in SF9 insect cells; His6 (N); made in house; host or cells: Sf9 insect cells (Bac-to-Bac baculovirus)
T1 sequence (O75460 547-977): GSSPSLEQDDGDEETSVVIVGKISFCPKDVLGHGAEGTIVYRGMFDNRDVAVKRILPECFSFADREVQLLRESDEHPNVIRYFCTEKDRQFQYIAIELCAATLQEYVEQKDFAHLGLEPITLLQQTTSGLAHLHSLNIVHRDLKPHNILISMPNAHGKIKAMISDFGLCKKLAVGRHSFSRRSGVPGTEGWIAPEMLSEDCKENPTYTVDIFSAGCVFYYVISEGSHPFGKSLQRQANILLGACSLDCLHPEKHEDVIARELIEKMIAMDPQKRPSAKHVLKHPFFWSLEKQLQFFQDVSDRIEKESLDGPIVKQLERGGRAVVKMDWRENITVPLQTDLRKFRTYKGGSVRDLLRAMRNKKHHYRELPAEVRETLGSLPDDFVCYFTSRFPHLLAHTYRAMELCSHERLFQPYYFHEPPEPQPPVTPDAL
Experimental: In Vitro RNase Activity Assay Inhibitor Titrations
50 nM IRE1α* was incubated with inhibitor (initial concentration of 10 or 60 μM, three-fold serial dilutions) or DMSO for 30 min in assay buffer (20 mM Tris, 50 mM NaCl, 1 mM MgCl2, 2 mM DTT, 0.05% Triton X-100 (v/v), pH 7.5). Assays were initiated by adding 10 μL of XBP1-mini substrate (5′-Alex647-CAUGUCCGCAGCGCAUG-IowaBlack-FQ-3′ (SEQ ID NO: 1); IDT) to the wells at a final concentration of 200 nM and a final well volume of 30 μL. Fluorescence was detected on a Perkin Elmer Envision Microplate Reader at excitation and emission wavelengths of 650 nm and 665 nm. Dose-response curves were fit using “one-site fit log IC50” parameter using GraphPad Prism analysis software.

XBP1 mRNA splicing = experiment: XBP1 splicing in ER-stressed INS-1 cells; type: cell-based, rat; settings: DTT, 20 μM compound
Experimental: (§1) RNA Isolation, Quantitative Real-Time PCR, and Primers
INS-1 or isogenic IRE1α-overexpressing INS-1 cells were plated onto Poly-D-Lysine coated tissue culture plate and grown for 48 hrs. Inhibitors or DMSO were added to the media and incubated for 1 hour at 37° C. with 5% CO2 prior to addition of ER stress agents or Dox as indicated. RNA was isolated from whole cells using either QIAGEN RNeasy Mini kits or Trizol (Invitrogen) and reverse transcribed as above to obtain total cDNA. Then, XBP-1 primers were used to amplify an XBP-1 amplicon spanning the 26 nt intron from the cDNA samples in a regular 3-step PCR. Thermal cycles were: 5 min at 95° C., 30 cycles of 30 s at 95° C., 30 s at 60° C., and 1 min at 72° C., followed by 72° C. for 15 min, and hold at 4° C. Primers used for XBP-1 mRNA splicing were as follows: sense primer XBP1.3 S (5′ […]-3′ (SEQ ID NO:2)) and antisense primer XBP1.2AS (5′-[…]-3′ (SEQ ID NO:3)). PCR fragments were then digested by PstI, resolved on 3% agarose gels, stained with EtBr and quantified by densitometry using ImageJ (NIH). For standard mRNA detection, generally […] total RNA was reverse transcribed using the QuantiTect Reverse Transcription Kit (QIAGEN). For qPCR, we used SYBR green (QIAGEN) and StepOnePlus Real-Time PCR System (Applied Biosystems). Thermal cycles were: 5 min at 95° C., 40 cycles of 15 sec at 95° C., 30 sec at 60° C. […]

[1] = system: RIDD (IRE1α-dependent mRNA decay); experiment: Real-time PCR of RIDD mRNA targets in INS-1 cells overexpressing IRE1α (Dox); type: cell-based, rat; settings: 20 μM, 5 ng/mL Dox
Experimental: as §1
INS-1 or isogenic IRE1α-overexpressing INS-1 cells were plated onto Poly-D-Lysine coated tissue culture plate and grown for 48 hrs. Inhibitors or DMSO were added to the media and incubated for 1 hour at 37° C. with 5% CO2 prior to addition of ER stress agents or Dox as indicated. RNA was isolated from whole cells using either QIAGEN RNeasy Mini kits or Trizol (Invitrogen) and reverse transcribed as above to obtain total cDNA. Then, XBP-1 primers were used to amplify an XBP-1 amplicon spanning the 26 nt intron from the cDNA samples in a regular 3-step PCR. Thermal cycles were: 5 min at 95° C., 30 cycles of 30 s at 95° C., 30 s at 60° C., and 1 min at 72° C., followed by 72° C. for 15 min, and hold at 4° C. Primers used for XBP-1 mRNA splicing were as follows: sense primer XBP1.3 S (5′ […]-3′ (SEQ ID NO:2)) and antisense primer XBP1.2AS (5′-[…]-3′ (SEQ ID NO:3)). PCR fragments were then digested by PstI, resolved on 3% agarose gels, stained with EtBr and quantified by densitometry using ImageJ (NIH). For standard mRNA detection, generally […] total RNA was reverse transcribed using the QuantiTect Reverse Transcription Kit (QIAGEN). For qPCR, we used SYBR green (QIAGEN) and StepOnePlus Real-Time PCR System (Applied Biosystems). Thermal cycles were: 5 min at 95° C., 40 cycles of 15 sec at 95° C., 30 sec at 60° C. Gene expression levels were normalized to Beta Actin. Primers used for qPCR of RIDD targets were as follows: Beta Actin Fwd: 5′-[…]-3′ (SEQ ID NO:4), Beta Actin Rev: 5′-[…]-3′ (SEQ ID NO:5), Insulin 1 Fwd: 5′-GTCCTCTGGGAGCCCAAG-3′ (SEQ ID NO:6), Insulin 1 Rev: 5′-ACAGAGCCTCCACCAGG-3′ (SEQ ID NO:7), Insulin 2 Fwd: 5′-ATCCTCTGGGAGCCCCGC-3′ (SEQ ID NO:8), Insulin 2 Rev: 5′-AGAGAGCTTCCACCAAG-3′ (SEQ ID NO:9), Blos1 Fwd: 5′-[…]-3′ (SEQ ID NO:10), and Blos1 Rev: 5′-[…]-3′ (SEQ ID NO:11).
Real-Time PCR (Q-PCR) used SYBR green and Step OnePlus Real-Time PCR System (Applied Biosystems). Thermal cycles were: 5 min at 95° C., 40 cycles of 15 s at 95° C., 30 s at 60° C. Gene expression levels were normalized to GAPDH. Q-PCR Sense/antisense primers used: Rat GAPDH, 5′-[…]-3′ (SEQ ID NO:14) and 5′-[…]-3′ (SEQ ID NO:15); Rat Ins1, 5′-GTCCTCTGGGAGCCCAAG-3′ (SEQ ID NO:6) and 5′-ACAGAGCCTCCACCAGG-3′ (SEQ ID NO:7); Rat Pdia4, 5′-CGTCTCGCCCTGATTCGT-3′ (SEQ ID NO:16) and 5′-[…]-3′ (SEQ ID NO:17); Rat Blos1, 5′-[…]-3′ (SEQ ID NO:18) and 5′-TGTCCAGTTCGATGCTCCG-3′ (SEQ ID NO:19).
Real-time PCR for FIGS. 34A-34F: Real-Time PCR (Q-PCR) used SYBR green and Step OnePlus Real-Time PCR System (Applied Biosystems). Thermal cycles were: 5 min at 95° C., 40 cycles of 15 s at 95° C., 30 s at 60° C. Gene expression levels were normalized to GAPDH. Q-PCR Sense/antisense primers used: Rat GAPDH, 5′-[…]-3′ (SEQ ID NO:20) and 5′-[…]-3′ (SEQ ID NO:21); Rat Ins1, 5′-GTCCTCTGGGAGCCCAAG-3′ (SEQ ID NO:6) and 5′-ACAGAGCCTCCACCAGG-3′ (SEQ ID NO:7); Rat Ins2, 5′-ATCCTCTGGGAGCCCCGC-3′ (SEQ ID NO:8) and 5′-AGAGAGCTTCCACCAAG-3′ (SEQ ID NO:9); Rat Pdia4, 5′-[…]-3′(SEQ ID NO:22) and 5′-[…]-3′ (SEQ ID NO:23); Rat Blos1, 5′-[…]-3′ (SEQ ID NO:18) and 5′-TGTCCAGTTCGATGCTCCG-3′ (SEQ ID NO:19).

SMILES	RNase activity of IRE1α* (in words) (IRE1α*)	XBP1 mRNA splicing (XBP1 mRNA splicing)	mRNA decay substrates Blos1, Ins1 and Ins2 [1]
O=S(=O)(CC(F)(F)F)Nc1ccc(Oc2ncccc2-c2ccnc(N[C@H]3CCCNC3)n2)c2ccccc12 (stereo in doubt) [PAIR1, 2,2,2-trifluoro-N-(4-(3-(2-(piperidin-3-ylamino)pyrimidin-4-yl)pyridin-2-yloxy)naphthalen-1-yl)ethanesulfonamide]	partially inhibit	only weakly inhibited	rescued
O=S(=O)(CCC(F)(F)F)Nc1ccc(Oc2ncccc2-c2ccnc(NC3CCCNC3)n2)c2ccccc12 (stereo not shown) [KIRA9, 3,3,3-trifluoro-N-(4-(3-(2-(piperidin-3-ylamino)pyrimidin-4-yl)pyridin-2-yloxy)naphthalen-1-yl)propane-1-sulfonamide]	–	–	rescued
